Data: PubChem BioAssay AID252 (DTP/NCI, 2004)
Several values for one entry are separate records, joined by “and”; a condition that tells them apart may be missing. Identical values can stand only once. Inconclusive results and toxic doses are left out.

Tested on: BDF1 mice, intracerebral L1210 leukemia, survival T/C
Test: NCI In Vivo Anticancer Drug Screen. Data for tumor model L1210 Leukemia (intracerebral) in B6D2F1 (BDF1) mice
Conditions: higher = longer survival
How it was run: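 Readout is the T/C ratio: survival of compound-treated animals over that of vehicle-treated controls, in mice bearing transplantable tumour.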

[1] = endpoint: mean survival time, dose: 10.0 mg/kg/injection, schedule: Q01DX009 (ip), vehicle: saline
[2] = endpoint: mean survival time, dose: 10.0 mg/kg/injection, schedule: Q01DX009 (sc), vehicle: saline
[3] = endpoint: mean survival time, dose: 20.0 mg/kg/injection, schedule: Q01DX009 (sc), vehicle: saline

Compound: COC(=O)c1ccccc1N=NN(C)C
- T/C (endpoint: median survival time, dose: 10.0 mg/kg/injection, schedule: Q01DX009 (ip), vehicle: saline with Tween-80): 114 % of control
- T/C (endpoint: median survival time, dose: 20.0 mg/kg/injection, schedule: Q01DX009 (ip), vehicle: saline with Tween-80): 97 % of control

Compound: CS(=O)(=O)OCCCCOS(C)(=O)=O
- T/C (endpoint: mean survival time, dose: 27.0 mg/kg/injection, schedule: Q01DX001 (ip), vehicle: carboxymethylcellulose (CMC)): 95 % of control
- T/C (endpoint: mean survival time, dose: 41.0 mg/kg/injection, schedule: Q01DX001 (ip), vehicle: carboxymethylcellulose (CMC)): 93 % of control
- T/C (endpoint: mean survival time, dose: 61.0 mg/kg/injection, schedule: Q01DX001 (ip), vehicle: carboxymethylcellulose (CMC)): 94 % of control

Compound: CS(=O)(=O)Nc1ccc(Nc2c3ccccc3nc3ccccc23)cc1
- T/C [1]: 104 % of control
- T/C [2]: 92 % of control
- T/C (endpoint: mean survival time, dose: 20.0 mg/kg/injection, schedule: Q01DX009 (ip), vehicle: saline): 101 % of control
- T/C [3]: 96 % of control
- T/C (endpoint: mean survival time, dose: 40.0 mg/kg/injection, schedule: Q01DX009 (ip), vehicle: saline): 96 % of control
- T/C (endpoint: mean survival time, dose: 40.0 mg/kg/injection, schedule: Q01DX009 (sc), vehicle: saline): 90 % of control
- T/C (endpoint: mean survival time, dose: 80.0 mg/kg/injection, schedule: Q01DX009 (sc), vehicle: saline): 96 % of control

Compound: O=P(NC12CC3CC(CC(C3)C1)C2)(N1CC1)N1CC1
- T/C (endpoint: mean survival time, dose: 9.0 mg/kg/injection, schedule: Q04DX003 (ip), vehicle: Klucel (hydroxypropylcellulose) (HPC)): 112 % of control
- T/C (endpoint: mean survival time, dose: 12.0 mg/kg/injection, schedule: Q01DX001 (ip), vehicle: Klucel (hydroxypropylcellulose) (HPC)): 109 % of control
- T/C (endpoint: mean survival time, dose: 18.0 mg/kg/injection, schedule: Q01DX001 (ip), vehicle: Klucel (hydroxypropylcellulose) (HPC)): 117 % of control

Compound: O=NN(CCCl)C(=O)NC1Cc2ccccc2C1
- T/C (endpoint: mean survival time, dose: 55.0 mg/kg/injection, schedule: Q01DX001 (ip), vehicle: other): 116 % of control
- T/C (endpoint: mean survival time, dose: 84.0 mg/kg/injection, schedule: Q01DX001 (ip), vehicle: other): 123 % of control
- T/C (endpoint: mean survival time, dose: 188.0 mg/kg/injection, schedule: Q01DX001 (ip), vehicle: other): 94 % of control

Compound: CCOC(=O)C1CCC(NC(=O)N(CCCl)N=O)CC1 (stereo not given)
- T/C (endpoint: mean survival time, dose: 4.0 mg/kg/injection, schedule: Q01DX001 (ip), vehicle: other): 103 % of control and 113 % of control
- T/C (endpoint: mean survival time, dose: 8.0 mg/kg/injection, schedule: Q01DX001 (ip), vehicle: other): 110 % of control
- T/C (endpoint: mean survival time, dose: 14.0 mg/kg/injection, schedule: Q01DX001 (ip), vehicle: other): 118 % of control
- T/C (endpoint: mean survival time, dose: 31.0 mg/kg/injection, schedule: Q01DX001 (ip), vehicle: other): 179 % of control and 203 % of control
- T/C (endpoint: mean survival time, dose: 33.0 mg/kg/injection, schedule: Q01DX001 (ip), vehicle: other): 169 % of control and 203 % of control
- T/C (endpoint: mean survival time, dose: 44.0 mg/kg/injection, schedule: Q01DX001 (ip), vehicle: other): 225 % of control
- T/C (endpoint: mean survival time, dose: 47.0 mg/kg/injection, schedule: Q01DX001 (ip), vehicle: other): 203 % of control and 239 % of control
- T/C (endpoint: mean survival time, dose: 66.0 mg/kg/injection, schedule: Q01DX001 (ip), vehicle: other): 175 % of control and 303 % of control
- T/C (endpoint: mean survival time, dose: 67.0 mg/kg/injection, schedule: Q01DX001 (ip), vehicle: other): 155 % of control
- T/C (endpoint: mean survival time, dose: 70.0 mg/kg/injection, schedule: Q01DX001 (ip), vehicle: other): 151 % of control

Compound: Cc1[nH]c(=O)[nH]c(=O)c1N(CCF)CCCl
- T/C (endpoint: mean survival time, dose: 3.5 mg/kg/injection, schedule: Q01DX009 (ip), vehicle: Klucel (hydroxypropylcellulose) (HPC)): 97 % of control
- T/C (endpoint: mean survival time, dose: 7.0 mg/kg/injection, schedule: Q01DX009 (ip), vehicle: Klucel (hydroxypropylcellulose) (HPC)): 88 % of control
- T/C (endpoint: mean survival time, dose: 14.0 mg/kg/injection, schedule: Q01DX009 (ip), vehicle: Klucel (hydroxypropylcellulose) (HPC)): 111 % of control
- T/C (endpoint: mean survival time, dose: 28.0 mg/kg/injection, schedule: Q01DX009 (ip), vehicle: Klucel (hydroxypropylcellulose) (HPC)): 94 % of control

Compound: O=NN(CCCl)C(=O)Nc1ccc(Oc2ccc(NC(=O)N(CCCl)N=O)cc2)cc1
- T/C (endpoint: mean survival time, dose: 440.0 mg/kg/injection, schedule: Q01DX001 (ip), vehicle: carboxymethylcellulose (CMC)): 116 % of control
- T/C (endpoint: mean survival time, dose: 670.0 mg/kg/injection, schedule: Q01DX001 (ip), vehicle: carboxymethylcellulose (CMC)): 119 % of control
- T/C (endpoint: mean survival time, dose: 1500.0 mg/kg/injection, schedule: Q01DX001 (ip), vehicle: carboxymethylcellulose (CMC)): 122 % of control

Compound: COc1cc(NS(C)(=O)=O)ccc1Nc1c2ccccc2nc2ccccc12
- T/C (endpoint: mean survival time, dose: 0.5 mg/kg/injection, schedule: Q01DX009 (ip), vehicle: other): 98 % of control
- T/C (endpoint: mean survival time, dose: 0.75 mg/kg/injection, schedule: Q01DX009 (ip), vehicle: saline): 100 % of control
- T/C (endpoint: mean survival time, dose: 0.75 mg/kg/injection, schedule: Q01DX009 (sc), vehicle: saline): 101 % of control
- T/C (endpoint: mean survival time, dose: 1.0 mg/kg/injection, schedule: Q01DX009 (ip), vehicle: other): 92 % of control
- T/C (endpoint: mean survival time, dose: 1.25 mg/kg/injection, schedule: Q01DX009 (ip), vehicle: saline): 97 % of control
- T/C (endpoint: mean survival time, dose: 1.25 mg/kg/injection, schedule: Q01DX009 (sc), vehicle: saline): 94 % of control
- T/C (endpoint: mean survival time, dose: 1.5 mg/kg/injection, schedule: Q01DX009 (ip), vehicle: saline): 100 % of control
- T/C (endpoint: mean survival time, dose: 1.5 mg/kg/injection, schedule: Q01DX009 (sc), vehicle: saline): 93 % of control
- T/C (endpoint: mean survival time, dose: 1.8 mg/kg/injection, schedule: Q01DX009 (ip), vehicle: water): 92 % of control
- T/C (endpoint: mean survival time, dose: 2.0 mg/kg/injection, schedule: Q01DX009 (ip), vehicle: other): 105 % of control
- T/C (endpoint: mean survival time, dose: 2.5 mg/kg/injection, schedule: Q01DX009 (ip), vehicle: saline): 108 % of control and 97 % of control
- T/C (endpoint: mean survival time, dose: 2.5 mg/kg/injection, schedule: Q01DX009 (sc), vehicle: saline): 98 % of control and 95 % of control
- T/C (endpoint: mean survival time, dose: 3.0 mg/kg/injection, schedule: Q01DX009 (ip), vehicle: saline): 102 % of control
- T/C (endpoint: mean survival time, dose: 3.0 mg/kg/injection, schedule: Q01DX009 (ip), vehicle: water): 88 % of control
- T/C (endpoint: mean survival time, dose: 3.0 mg/kg/injection, schedule: Q01DX009 (sc), vehicle: saline): 92 % of control
- T/C (endpoint: mean survival time, dose: 5.0 mg/kg/injection, schedule: Q01DX009 (ip), vehicle: saline): 121 % of control and 108 % of control
- T/C (endpoint: mean survival time, dose: 5.0 mg/kg/injection, schedule: Q01DX009 (sc), vehicle: saline): 101 % of control and 93 % of control
- T/C (endpoint: mean survival time, dose: 6.0 mg/kg/injection, schedule: Q01DX009 (ip), vehicle: saline): 104 % of control
- T/C (endpoint: mean survival time, dose: 6.0 mg/kg/injection, schedule: Q01DX009 (sc), vehicle: saline): 96 % of control
- T/C [1]: 111 % of control
- T/C [2]: 100 % of control and 98 % of control
- T/C [3]: 109 % of control

Compound: CN1CCN(CCCN2c3ccccc3Sc3ccc(C(F)(F)F)cc32)CC1
- T/C (endpoint: mean survival time, dose: 44.0 mg/kg/injection, schedule: Q04DX003 (ip), vehicle: water): 108 % of control

Compound: O=NN(CCCl)C(=O)NC1CCS(=O)(=O)C1 (stereo not given) (tested in a mixture with another compound)
- T/C (endpoint: mean survival time, dose: 14.0 mg/kg/injection, schedule: Q01DX001 (oral), vehicle: other): 172 % of control
- T/C (endpoint: mean survival time, dose: 16.0 mg/kg/injection, schedule: Q01DX001 (ip), vehicle: other): 156 % of control
- T/C (endpoint: mean survival time, dose: 22.0 mg/kg/injection, schedule: Q01DX001 (oral), vehicle: other): 217 % of control
- T/C (endpoint: mean survival time, dose: 36.0 mg/kg/injection, schedule: Q01DX001 (ip), vehicle: other): 121 % of control
- T/C (endpoint: mean survival time, dose: 48.0 mg/kg/injection, schedule: Q01DX001 (oral), vehicle: other): 116 % of control

Compound: CNC(=O)NC(=O)N(C)N=O
- T/C (endpoint: mean survival time, dose: 15.0 mg/kg/injection, schedule: Q01DX001 (ip), vehicle: carboxymethylcellulose (CMC)): 105 % of control
- T/C (endpoint: mean survival time, dose: 22.6 mg/kg/injection, schedule: Q01DX001 (ip), vehicle: carboxymethylcellulose (CMC)): 105 % of control
- T/C (endpoint: mean survival time, dose: 34.0 mg/kg/injection, schedule: Q01DX001 (ip), vehicle: carboxymethylcellulose (CMC)): 98 % of control
- T/C (endpoint: mean survival time, dose: 51.0 mg/kg/injection, schedule: Q01DX001 (ip), vehicle: carboxymethylcellulose (CMC)): 112 % of control
- T/C (endpoint: mean survival time, dose: 77.0 mg/kg/injection, schedule: Q01DX001 (ip), vehicle: carboxymethylcellulose (CMC)): 109 % of control and 111 % of control
- T/C (endpoint: mean survival time, dose: 117.0 mg/kg/injection, schedule: Q01DX001 (ip), vehicle: carboxymethylcellulose (CMC)): 91 % of control
- T/C (endpoint: mean survival time, dose: 175.0 mg/kg/injection, schedule: Q01DX001 (ip), vehicle: carboxymethylcellulose (CMC)): 87 % of control
